Measured values published in article PMC7381267, “A Bromodomain-Containing Protein 4 (BRD4) Inhibitor Suppresses Angiogenesis by Regulating AP-1 Expression” (Frontiers in Pharmacology, 2020).
Read-outs that look alike come from different tables or passages of the source.

Columns and labels:
[1] = tested on: chick embryo CAM vasculature; assay: Chick embryo chorioallantoic membrane (CAM) anti-angiogenesis assay; type: in vivo; settings: 48 h; for Inhibitory effect on microvessel density (MVD) / Inhibitory effect on MVD compared with (+)-JQ1 / Positive Ratio: 50 μg/ml; for Inhibitory effect on microvessel density (MVD) / Inhibition of MVD compared to DMSO / Inhibitory effect on MVD compared with (+)-JQ1 / Inhibitory efficacy on MVD compared with (+)-JQ1: CAM; for Inhibitory effect on microvessel density (MVD) / Inhibitory effect on MVD compared with (+)-JQ1: Figure 1C; for Inhibition of MVD compared to DMSO: 25, 50 and 100 μM, Figure 2F; for Anti-angiogenic activity, egg number 1: egg 1; for Anti-angiogenic activity, egg number 3: egg 3; for Anti-angiogenic activity, egg number 5: egg 5; for Inhibitory efficacy on MVD compared with (+)-JQ1: at each of 25, 50 and 100 μM; for Positive Ratio: embryos with ++ and +++ compared with total number of embryos; for Anti-angiogenic activity, egg number 2: egg 2; for Anti-angiogenic activity, egg number 4: egg 4
Method: Fertilized white leghorn chicken eggs were obtained from the Avian Farm of South China Agriculture University (Guangzhou, China) and the shells were cleaned with 1% geramine. […] A small window (10 × 10 mm^2) was cut above the air chamber of egg while the chick embryo was growing through the ninth day. BET family member inhibitors or DMSO (dissolved in 30 µl of phosphate-buffered saline [PBS, pH 7.4]) were placed directly onto the live chick embryo CAM through the window at the indicated concentrations and incubated for 48 h. Then, the eggshells were cut carefully along the axis of the median line, and the content was discarded. The CAM vasculature around the eggshell windows was observed and photographed under a stereomicroscope (Olympus SZX16). The microvessel density (MVD) was calculated as the percentage of blood vessel area in the total drug-treated area using the Image-Pro Plus 6.0 software (IPP 6.0, Media Cybernetics, Inc., Rockville MD, USA).
The effects of all these selected compounds on angiogenesis were first determined through use of the chick embryo CAM model. […] Each of the compounds (50 μg/ml) was added to the CAM of 9-day-old chick embryos for 48 h. The CAMs of chick embryos were photographed, and the inhibition ratio indicating angiogenesis was calculated and analyzed. […] An inhibitory effect observable but not obvious on the generation of third-grade vessels was indicated by “+”; an obvious medium-level inhibitory effect on secondary vessels was indicated by “++”; and an obvious potent inhibitory effect on primary blood vessels was indicated by “+++”.

[2] = tested on: HUVECs; assay: Cell viability by CCK-8 assay; type: cell-based, human; settings: for Cell viability compared with DMSO or (−)-JQ1: 8.5 μM, 96 h; for IC50: Homo sapiens, HUVEC, read-out: 50% inhibition concentration of cell viability
Method: Cell viability after BET family member inhibitor treatment was evaluated by CCK-8 assay. HUVECs were seeded in 96-well plates at a density of 2,000 cells/well. Twenty-four hours later, the BET family member inhibitors, (−)-JQ1 (negative control drug) and DMSO (solvent group) were added at the indicated concentrations. […] The absorbance was evaluated at 450 nm to determine cell viability.
Furthermore, (−)-JQ1 was employed as a negative control, and DMSO was employed as a solvent control. […].

[3] = tested on: chick embryo YSM vessels; assay: Chick embryo yolk sac membrane (YSM) anti-angiogenesis assay; type: in vivo; settings: 100 μM, 24 h; for Blood vessel density and number of blood vessels compared with DMSO: YSM of 3-day-old chick embryos
Method: On the third day of incubation, the well-developed live chicken embryos were carefully transferred into sterilized dishes, and the chick embryo vessels were arranged to face upward. Color marked silastic rings were symmetrically placed onto the top of the vessel regions of the yolk sac membrane and incubated for 3 h in the incubator. Then, 100 μM BET family member inhibitors or DMSO (dissolved in 30 µl of PBS, pH 7.4) was added into the center of the rings and cultured in the incubator for 24 h. Images of the vessels in the silastic rings were captured at 0 and 24 h, respectively. The images were quantitatively analyzed by Image-Pro Plus 6.0, and then the number of blood vessels 24 h after drug treatment and the MVD at 0 and 24 h were quantified using IPP 6.0. The growth rate in the DMSO-treated silica gel circle was considered to be one.

[4] = tested on: HUVECs; assay: Tube formation assay; settings: 8.5 μM, 48 h pretreatment, then 5 h on Matrigel
Method: The circumference of the formed tubes was measured under an inverted light microscope.

[5] = tested on: c-jun and c-fos (AP-1) in HUVECs; assay: Immunoblot of AP-1 components; type: cell-based, human; settings: 48 h
Method: Then, the proteins of these cells were extracted using RIPA buffer and separated by 10% (w/v) sodium dodecyl sulphate-polyacrylamide gel electrophoresis (SDS-PAGE). The separated proteins were transferred onto a polyvinylidene fluoride (PVDF) membrane (Millipore, MA, USA) and blocked using 5% (w/v) non-fat powder milk at room temperature. Next, the membranes were incubated in the relative primary antibody and horseradish peroxidase (HRP)-conjugated secondary antibodies. Then, the Image Quant LAS 4000 system (GE Healthcare, Waukesha, WI, USA) was used for the direct visualization of the membranes. The protein bands were densitometrically quantified using Quantity-One protein analysis software (Bio-Rad Laboratories, Hercules, CA, USA). The relative expression of the proteins was normalized to the expression of glyceraldehyde-3-phosphate dehydrogenase (GAPDH).
[…]. […] […].

[6] = molecular target: T1, BRD2 BD2 (Homo sapiens, UniProt P25440); assay: TR-FRET assay, BRD2 BD2; type: binding
T1 construct: purchased Cayman Chemical
T1 sequence (P25440 344-453 limits assumed): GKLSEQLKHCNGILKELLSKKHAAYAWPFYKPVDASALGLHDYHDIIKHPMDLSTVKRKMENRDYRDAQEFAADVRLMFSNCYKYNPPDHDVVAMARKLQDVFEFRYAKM
Method: (§1) The specificity of the designed and synthesized compounds for BRD4 was also evaluated through comparison with those for BRD2.
(§2) As acetylated histone peptides are known substrates for bromodomain-containing proteins, we initially screened the complexes for their ability to modulate the protein–protein interaction between acetylated lysine and BET family members. […] Then, the IC50 of the compounds that prevent BRD4 (BD1 or BD2)/BRD2 (BD1 or BD2) and acetylated histone interactions was calculated by TR-FRET assay in vitro.

[7] = molecular target: T2, BRD2 BD1 (Homo sapiens, UniProt P25440); assay: TR-FRET assay, BRD2 BD1; type: binding
T2 construct: purchased Cayman Chemical
T2 sequence (P25440 74-180 limits assumed): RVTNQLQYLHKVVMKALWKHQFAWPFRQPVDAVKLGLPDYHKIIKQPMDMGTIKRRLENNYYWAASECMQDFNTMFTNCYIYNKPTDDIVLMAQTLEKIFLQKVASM
Method: as §1, §2

[8] = molecular target: T3, BRD4 BD1 (Homo sapiens, UniProt O60885); assay: TR-FRET assay, BRD4 BD1; type: binding
T3 construct: purchased Cayman Chemical
Method: as §1, §2

[9] = tested on: H3K122Ac; parameters: method as in Liu et al., 2020; settings: ref Liu et al., 2020; cited from earlier work
[10] = molecular target: T4, BRD4 BD2 (Homo sapiens, UniProt O60885); assay: TR-FRET assay, BRD4 BD2; type: binding
T4 construct: purchased Cayman Chemical
Method: as §1, §2

[11] = 50 μg/ml on CAM of 9-day-old chick embryos

For Cc1sc2c(c1C)C(c1ccc(Cl)cc1)=N[C@@H](CC(=O)OC(C)(C)C)c1nnc(C)n1-2 [(+)-JQ1 (1), reference compound], the “Inhibitory effect on microvessel density (MVD)” value (“Inhibitory effect … (MVD)” below) [1] was “most impressive inhibitory effect on MVD”, the “Inhibition of MVD compared to DMSO” value [1] was “significantly inhibited MVD in a concentration-dependent manner” and the “Cell viability compared with DMSO or (−)-JQ1” value ([2]; HUVECs) was “significantly suppressed cell viability”. For the same molecule, the IC50 [2] was 5000 nM, the “Blood vessel density and number of blood vessels compared with DMSO” value [3] was “significantly reduced” and the “Tube formation (tube circumference) compared with DMSO” value [4] was “reduction in tube circumference”. For the same molecule, the “Expression of c-jun compared with DMSO” value [5] was “significantly inhibited the expression of c-jun” and the “Phosphorylation of c-jun and c-fos compared with DMSO” value [5] was “significantly inhibited”.

With COc1cc(OC)c2c(=O)cc(-c3ccc(OCC(O)CN4CCCCC4)cc3)oc2c1 (stereo not drawn) [HJC5100(16)] the “Anti-angiogenic activity, egg number 1” value [1, 11] was “+” and the “Anti-angiogenic activity, egg number 3” value [1, 11] was “+”.

In the case of Cc1cc(/N=N/c2ccc(S(=O)(=O)Nc3ccccn3)cc2)c(N)cc1O [MS436 (3), reference compound], the IC50 [6] is reported as 846 nM, the “Anti-angiogenic activity, egg number 5” value [1, 11] is reported as “+” and the “Inhibitory effect on MVD compared with (+)-JQ1” value [1] is reported as “better than that of the (+)-JQ1 positive control”. The “Inhibitory effect … (MVD)” value [1] was “most impressive inhibitory effect on MVD”, the “Inhibition of MVD compared to DMSO” value [1] was “significantly inhibited MVD in a concentration-dependent manner” and the “Inhibitory efficacy on MVD compared with (+)-JQ1” value [1] was “stronger inhibitory efficacy than (+)-JQ1”. It also gave an IC50 [7] of 797 nM.

With CC(C)(C)c1cc(-c2nnc(-c3cc(F)c(F)c(F)c3)o2)no1 [ZL0164(4)] the “Anti-angiogenic activity, egg number 5” value [1, 11] was “+” and the “Positive Ratio” value [1] was 2/5.

With Cc1cc(N=Nc2ccc(S(=O)(=O)N3CCCC3)cc2)c(N)cc1O [ZL0452(5)] the “Anti-angiogenic activity, egg number 2” value [1, 11] was “+”, the “Anti-angiogenic activity, egg number 4” value [1, 11] was “+” and the “Positive Ratio” value [1] was 1/4.

In the case of Cc1cc(N=Nc2ccc(S(=O)(=O)NC3CCCC3)cc2)cc(C)c1O [ZL0453(6)], the “Anti-angiogenic activity, egg number 1” value [1, 11] is reported as “+”, the “Anti-angiogenic activity, egg number 4” value [1, 11] is reported as “+” and the “Anti-angiogenic activity, egg number 5” value [1, 11] is reported as “+”. The “Positive Ratio” value [1] was 1/5.

For Cc1cc(/N=N/c2ccc(S(=O)(=O)NC3CCCC3)cc2)c(N)cc1O [ZL0454 (2)], the “Anti-angiogenic activity, egg number 5” value [1, 11] was “+”, the “Inhibitory effect … (MVD)” value [1] was “most impressive inhibitory effect on MVD” and the “Inhibition of MVD compared to DMSO” value [1] was “significantly inhibited MVD in a concentration-dependent manner”. For the same molecule, the “Inhibitory efficacy on MVD compared with (+)-JQ1” value [1] was “stronger inhibitory efficacy than (+)-JQ1”.

For COc1cc(OC)c2c(=O)cc(-c3cc(C)c(OC[C@H](O)CN4CCCCC4)c(C)c3)oc2c1 [ZL0513 (7)], the IC50 [6] was 845 nM, the “Anti-angiogenic activity, egg number 4” value [1, 11] was “+” and the “Inhibitory effect on MVD compared with (+)-JQ1” value [1] was “better than that of the (+)-JQ1 positive control”. For the same molecule, the “Inhibitory effect … (MVD)” value [1] was “most impressive inhibitory effect on MVD”, the “Positive Ratio” value [1] was 4/5 and the “Inhibition of MVD compared to DMSO” value [1] was “significantly inhibited MVD in a concentration-dependent manner”. For the same molecule, the “Inhibitory efficacy on MVD compared with (+)-JQ1” value [1] was “stronger inhibitory efficacy than (+)-JQ1”, the IC50 [7] was 791 nM and the “Cell viability compared with DMSO or (−)-JQ1” value ([2]; HUVECs) was “significantly suppressed cell viability”. The IC50 ([2]; HUVECs, CCK-8, concentration range 0.3 to 15 μM) was 8500 nM, the “Selectivity window to BRD4 over BRD2” value ([8]; BRD4 versus BRD2) was 10 fold and the IC50 ([8]; TR-FRET) was 67 nM. For the same molecule, the “Inhibition efficacy on angiogenesis in YSM compared with (+)-JQ1” value [3] was “significantly higher than that of (+)-JQ1 (1) treatment”, the “Blood vessel density and number of blood vessels compared with DMSO” value [3] was “significantly reduced” and the “Tube formation (tube circumference) compared with DMSO” value [4] was “reduction in tube circumference”. The “Effect on poly(I:C)-induced H3K122Ac” value [9] was “block poly(I:C)-induced H3K122Ac”, the IC50 [10] was 684 nM and the “Expression of c-jun compared with DMSO” value [5] was “significantly inhibited the expression of c-jun”. For the same molecule, the “Phosphorylation of c-jun and c-fos compared with DMSO” value [5] was “significantly inhibited”.

In the case of Cc1cc(N=Nc2ccc3c(c2)CCC(=O)N3)c(N)cc1O [ZL0518(8)], the “Anti-angiogenic activity, egg number 6” value ([1]; 50 μg/ml on CAM of 9-day-old chick embryos, egg 6) is reported as “+” and the “Positive Ratio” value [1] is reported as 1/3.

With COc1cc(OC)c2c(=O)cc(-c3ccc(OCC4CO4)cc3)oc2c1 (stereo not drawn) [ZL0519 (9)] the “Positive Ratio” value [1] was 3/4.

With COC(=O)C1CCCN1S(=O)(=O)c1ccc(NC(=O)c2ccc(C(F)(F)F)cc2)cc1 (stereo not drawn) [ZL0520(10)] the “Anti-angiogenic activity, egg number 1” value [1, 11] was “+”, the “Anti-angiogenic activity, egg number 4” value [1, 11] was “+” and the “Positive Ratio” value [1] was 1/5.

For Cc1ccc(S(=O)(=O)OC[C@@H]2CCCN2S(=O)(=O)c2ccc(NC(=O)Nc3ccc(C(F)(F)F)cc3)cc2)cc1 [ZL0586(12)], the “Anti-angiogenic activity, egg number 2” value [1, 11] was “+”, the “Anti-angiogenic activity, egg number 3” value [1, 11] was “+” and the “Anti-angiogenic activity, egg number 5” value [1, 11] was “+”. For the same molecule, the “Positive Ratio” value [1] was 2/5.

With O=C(Nc1ccc(C(F)(F)F)cc1)N1CCN(c2ccc(O)cc2)CC1 [ZL0589(14)] the “Anti-angiogenic activity, egg number 5” value [1, 11] was “+” and the “Positive Ratio” value [1] was 2/5.

For N#CC(=NNc1ccc2c(c1)CCC(=O)N2)C(=O)c1ccc(OC(F)(F)F)cc1 [ZL0593(15)], the “Anti-angiogenic activity, egg number 3” value [1, 11] was “+” and the “Positive Ratio” value [1] was 3/5.
